How the values were obtained:
neurons = test: Neurotoxicity of civamide (applicant's discovery, no method given)
[1] = compositions containing civamide, per U.S. Pat. No. 5,063,060; cited from earlier work
[2] = type: physicochemical
Excerpt: Civamide in amounts of 1 Φg, 5 Φg, 10 Φg, 50 Φg, and 100 Φg was dispersed in both 10 Φl and 20 Φl of each of the following: 100% dimethylsulfoxide (DMSO), normal saline (0.9% w/v sodium chloride) with 10% DMSO as suspending agent, normal saline with 0.5% DMSO and 10% cyclodextrin, 10% cyclodextrin and 10% DMSO as suspending agent, and normal saline with 10% cyclodextrin suspending agent, and normal saline with 25% DMSO. In each case, the saline was 0.9% USP.

male Sprague-Dawley rats [3] = test: Tail flick, hot plate (49° C., 52° C.) and paw pressure pain models after intrathecal administration; type: in vivo, rat; settings: 1-100 Φg in 10 or 20 Φl, evaluated seven days later, paw pressure
Method: Civamide and capsaicin were each separately administered intrathecally, in dosages of 1 Φg, 5 Φg, 10 Φg, 50 Φg, or 100 Φg in either 10 Φl or 20 Φl of 0.9% USP saline with 25% DMSO suspending agent, 0.9% USP saline and 10% cyclodextrin, and 0.9% USP saline with 0.5% DMSO and 10% cyclodextrin, to male Sprague-Dawley rats into whom intrathecal catheters had been inserted. Seven days later, tail flick, hot plate (49° C., 52° C.) and paw pressure pain models were evaluated.

male Sprague-Dawley rats [4] = test: Pain models after a single intrathecal dose: thermal escape, formalin and thermal injury evoked hyperalgesia, tactile allodynia in the Chung model of neuropathy; type: in vivo, rat; settings: single intrathecal dose of 10, 25 or 50 Φg/10 Φl saline with 20% or 25% DMSO
Method: Civamide 10 Φg/10 Φl saline, 25Φg/10 Φl saline, and 50 Φg/10 Φl saline and saline itself were administered intrathecally to male Sprague-Dawley rats. Each of the civamide compositions also included either 20% DMSO or 25% DMSO as a suspending agent. The saline used was 0.9% USP. Eighteen hours, 7 days, 14 days and 28 days after administration of a single intrathecal dose of either civamide or saline, models for various types of pain were evaluated. These included models for acute nociceptive processing (i.e. thermal escape), post tissue injury hyperpathic states (i.e. formalin and thermal injury evoked hyperalgesia) and nerve injury induced hyperpathia (i.e. tactile allodynia in the Chung model of neuropathy).

## COc1cc(CNC(=O)CCCC/C=C\C(C)C)ccc1O [Civamide, cis-8-methyl-N-vanillyl-6-nonenamide]
neurons
  neurotoxicity: no significant neurotoxicity
[1]
  efficacy compared with compositions containing capsaicin: comparable in efficacy
  local adverse effects compared with capsaicin: significantly less local adverse effects
[2]
  physical and chemical stability of compositions: physically and chemically stable
Male Sprague-Dawley rats [3]
  effectiveness versus intrathecally administered capsaicin in pain models: more effective than intrathecally administered capsaicin
  effectiveness versus saline in pain models: significantly more effective than saline
Male Sprague-Dawley rats [4]
  duration of the effects of a single dose: at least 28 days
  time after administration by which effective pain amelioration was produced: ≤ 18 h

From patent US20050085552A1, “Method for providing long-lasting pain relief through intrathecal administration of civamide” (Winston Laboratories, Inc., priority 2003, published 2005)
